# Source: PMC6361973, “The NOP-1 peptide derived from the central regulator of ethylene signaling EIN2 delays floral senescence in cut flowers” (Scientific Reports, 2019)
# Assays:
# [1] = test system: flower senescence; settings: cited from earlier work; for prevention of the effects of exogenous ethylene on flower senescence: during transport and storage
# [2] = test system: ethylene biosynthesis; settings: cited from earlier work
# Description: Consequently, a number of commercial products based o ...
# [3] = biological target: Dianthus caryophyllus ethylene receptor DcETR1 (Dianthus caryophyllus); experiment: MST; NOP-1 unlabelled, titrated from 100 µM to 3 nM in 100 mM potassium phosphate buffer, 300 mM NaCl, 0.015% FosCholine-16, to 50 nM Alexa488-labelled DcETR1; Monolith NT.115, 50% MST power; triplicates
# [4] = test system: cut carnations (Dianthus caryophyllus); experiment: Senescence / vase life of cut carnations; format: in vivo
# Description: To clarify whether NOP-1 also has the potential to serve as an inhibitor of senescence in cut flowers, we applied the peptide on cut carnations (Dianthus caryophyllus) and analyzed the effect on floral senescence in this model ethylene response system[9],[13],[17],[30]. In analogy to treatment with the chemical senescence inhibitor STS containing silver ions as active ingredient which target plant ethylene receptors[31] the peptide was directly supplied to the vase water. Senescence was monitored visually throughout the experiment and quantified by changes observed in petal size and/or color (Fig. 1A,B). […] To further substantiate the effect of the peptide biological on floral senescence observed with the carnation model system, we used roses as another species of highly ethylene sensitive ornamental plants. […] The untreated controls completely ended their vase life on day 9 due to these morphological changes.
# Figure 1 Effect of small molecule inhibitors of ethylene signaling on flower senescence of cut carnations. (A) Visual images of carnation cut flowers treated with senescence inhibitor silver nitrate or peptide NOP-1. Representative photos of carnation petals treated with 1 mM silver nitrate or 0.5 mM NOP-1 on DAT 0, 3, 6, 9, 12 and 15. […] (B) Quantitative analysis of flower size (left) and petal color change (right) of carnation flowers after treatment with silver salt, NOP-1 peptide or buffer-only. […]
# Cut flowers of carnations (Dianthus caryophyllus) and rose (Rosa hybrida), graded for marketable quality, were obtained from a local flower producer. […] Progression of senescence was recorded photographically for a period of 15 days. […] Changes in petal size and color were quantified using ImageJ (32 bit v1.51t.). Relative discoloration of petals was quantified by drawing multiple lines across each flower (petals only) and calculating the average values for red (R), green (G) and blue (B). […] Relative size of flowers was quantified using a macro that specifically recognizes the flower (petals + sepals) but not the flower stem with flower size in pixel² as the output. […]
# [5] = test system: cut roses (Rosa hybrida); experiment: Senescence / vase life of cut roses; format: in vivo; settings: 1 mM silver nitrate or 0.5 mM NOP-1 in vase water; untreated controls ended vase life on day 9; six flowers per treatment
# Description: To clarify whether NOP-1 also has the potential to serve as an inhibitor of senescence in cut flowers, we applied the peptide on cut carnations (Dianthus caryophyllus) and analyzed the effect on floral senescence in this model ethylene response system[9],[13],[17],[30]. In analogy to treatment with the chemical senescence inhibitor STS containing silver ions as active ingredient which target plant ethylene receptors[31] the peptide was directly supplied to the vase water. Senescence was monitored visually throughout the experiment and quantified by changes observed in petal size and/or color (Fig. 1A,B). […]
# Figure 2 Effect of small molecule inhibitors of ethylene signaling on flower senescence of cut roses. […] (B) Quantitative analysis of color change in petals after treatment with silver salt, NOP-1 peptide or buffer-only. […]
# Cut flowers of carnations (Dianthus caryophyllus) and rose (Rosa hybrida), graded for marketable quality, were obtained from a local flower producer. […] Progression of senescence was recorded photographically for a period of 15 days. […] Changes in petal size and color were quantified using ImageJ (32 bit v1.51t.). Relative discoloration of petals was quantified by drawing multiple lines across each flower (petals only) and calculating the average values for red (R), green (G) and blue (B). […]
# [6] = biological target: Dianthus caryophyllus ethylene receptor DcETR1 (Dianthus caryophyllus); experiment: MST; AtEIN2^479-1294 unlabelled, titrated from 1457.5 nM to 0.7 nM in 50 mM potassium phosphate (pH 7.8), 300 mM NaCl, 0.015% FosCholine-16, to 50 nM Alexa488-labelled DcETR1; Monolith NT.115, 60% MST power; triplicates
# [7] = test system: carnation ethylene receptor DcETR1; experiment: Microscale thermophoresis binding to carnation ethylene receptor DcETR1; parameters: species or system Dianthus caryophyllus; settings: MST; denatured using 2% (w/v) SDS and 40 mM DTT in the assay buffer; triplicates
# Description: To elucidate the mode of action of NOP-1 on flower senescence and to determine whether the peptide biological works by the same molecular mechanism as determined for NOP-1 controlled ripening delay, we initiated interaction studies of the carnation ethylene receptor DcETR1, the central regulator of the ethylene signaling cascade EIN2 and the NOP-1 peptide. To this end, DcETR1 was cloned in E. coli, expressed and purified according to protocols established in our lab[32] for ethylene receptors from Arabidopsis thaliana, Physcomitrella patens, tomato and apple (Supplementary Fig. S1). […] To determine binding affinity and dissociation constants of the purified recombinant proteins and the NOP-1 peptide we used microscale thermophoresis. […] Consequently, targeting this interaction by small-molecule modulators has the potential to shut down ethylene signaling and related plant responses. Therefore, we tested binding of the ripening delaying peptide NOP-1 identified in previous studies to target the ETR1-EIN2 complex with our purified carnation receptor DcETR1. […] The precise interaction site of NOP-1 at the Arabidopsis ETR1 receptor was recently resolved in our lab by molecular and computational studies. […]
# [8] = literature, reference not given
# Sequence of Dianthus caryophyllus ethylene receptor DcETR1 (Dianthus caryophyllus) (Q9M7M1 other isoform, or with tags, fused parts or gaps): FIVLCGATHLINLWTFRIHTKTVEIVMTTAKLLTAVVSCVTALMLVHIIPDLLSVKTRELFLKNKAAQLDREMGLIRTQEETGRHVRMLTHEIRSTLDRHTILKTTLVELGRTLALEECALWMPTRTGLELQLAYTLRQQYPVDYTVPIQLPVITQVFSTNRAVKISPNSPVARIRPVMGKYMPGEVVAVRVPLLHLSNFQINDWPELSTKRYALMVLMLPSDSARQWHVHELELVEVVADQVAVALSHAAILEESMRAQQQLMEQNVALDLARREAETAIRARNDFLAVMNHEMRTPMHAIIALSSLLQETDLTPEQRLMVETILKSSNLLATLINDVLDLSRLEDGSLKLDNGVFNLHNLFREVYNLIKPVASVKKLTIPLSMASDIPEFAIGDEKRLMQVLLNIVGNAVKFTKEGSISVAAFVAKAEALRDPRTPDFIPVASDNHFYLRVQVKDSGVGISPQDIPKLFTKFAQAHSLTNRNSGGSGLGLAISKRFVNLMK
molecule,measurement,setting,value
"NCCO/C=C/[C@H](N)C(=O)O [AVG, amino-ethoxyvinyl glycine]",prevention of the effects of exogenous ethylene on flower senescence,[1]; [8],ineffective
same,blocking of ethylene production that accompanies senescence,[2],effective in blocking ethylene production
NOP-1 peptide,Kd,[3],3.49 µM
"CC1=CC1 [1-MCP, 1-methylcyclopropene]",inhibition of ethylene action at 0 °C,[1]; 0 °C,almost no inhibition
same,inhibition of ethylene action at 20 °C,[1]; 20 °C,complete inhibition
same,delay of flower senescence on daily application,"[1]; applied on a daily basis, gaseous",significantly delayed flower senescence
same,effect of repetitive treatments on vase life and floral senescence of cut flowers,[1]; repetitive treatments with the gaseous inhibitor,marked increase in vase life and efficiently blocked floral senescence of cut flower
same,duration of senescence control compared with silver ions,"[1]; single treatment, literature, reference not given",does not control senescence for as long as silver ions
same,efficiency as ethylene action inhibitor,[1]; very small concentrations,highly efficient at very small concentrations
"O=[N+]([O-])[O-].[Ag+] [silver salt, silver nitrate]","efficacy compared with the other treatment, cut carnations (in words)","[4]; 0.5 mM NOP-1 vs 1 mM silver salt (AgNO3), entire trial period",noticeably more efficient in extending the vase life of cut carnations than the peptide biological
same,"signs of petal senescence after 15 days, cut carnations","[4]; 1 mM silver salt (AgNO3) in vase water, 50 mM Tris/Acetic acid pH 8, 15 days, six flowers",almost no signs of senescence after 15 days
same,delay of petal senescence in cut carnations (in words),"[4]; 1 mM silver salt (AgNO3) in vase water, 50 mM Tris/Acetic acid pH 8, six flowers, vs buffer controls senescent after 6 days",delays the appearance of these morphological manifestations by several days
same,"prolongation of vase life relative to buffer controls, cut roses",[5],6 to 8 days
"NOCC(=O)O [AOA, amino-oxyacetic acid]",prevention of the effects of exogenous ethylene on flower senescence,[1]; [8],ineffective
same,blocking of ethylene production that accompanies senescence,[2],effective in blocking ethylene production
AtEIN2^479-1294 (domain or fragment) NALSYPSVQEEEIERTETRRNEDESIVRLESRVKDQLDTTSVTSSVYDLPENILMTDQEIRSSPPEERELDVKYSTSQVSSLKEDSDVKEQSVLQSTVVNEVSDKDLIVETKMAKIEPMSPVEKIVSMENNSKFIEKDVEGVSWETEEATKAAPTSNFTVGSDGPPSFRSLSGEGGSGTGSLSRLQGLGRAARRHLSAILDEFWGHLYDFHGQLVAEARAKKLDQLFGTDQKSASSMKADSFGKDISSGYCMSPTAKGMDSQMTSSLYDSLKQQRTPGSIDSLYGLQRGSSPSPLVNRMQMLGAYGNTTNNNNAYELSERRYSSLRAPSSSEGWEHQQPATVHGYQMKSYVDNLAKERLEALQSRGEIPTSRSMALGTLSYTQQLALALKQKSQNGLTPGPAPGFENFAGSRSISRQSERSYYGVPSSGNTDTVGAAVANEKKYSSMPDISGLSMSARNMHLPNNKSGYWDPSSGGGGYGASYGRLSNESSLYSNLGSRVGVPSTYDDISQSRGGYRDAYSLPQSATTGTGSLWSRQPFEQFGVAERNGAVGEELRNRSNPINIDNNASSNVDAEAKLLQSFRHCILKLIKLEGSEWLFGQSDGVDEELIDRVAAREKFIYEAEAREINQVGHMGEPLISSVPNCGDGCVWRADLIVSFGVWCIHRVLDLSLMESRPELWGKYTYVLNRLQGVIDPAFSKLRTPMTPCFCLQIPASHQRASPTSANGMLPPAAKPAKGKCTTAVTLLDLIKDVEMAISCRKGRTGTAAGDVAFPKGKENLASVLKRYKRRLSNKPVGMNQDGPGSRKNVTAYGSLG,Kd,[6],136 nM
same,interaction with chemically denatured DcETR1 (negative control),[7],no interaction
